Key:
MCF7 = assay: Antiproliferation MTT assay, MCF7; format: cell-based; settings: Homo sapiens, Breast cancer
Method: (§1) Cells were seeded at 10000-50000 cells/well in 96 plates for 16 h. On day two, nine serial 1:3 compound dilutions were made in DMSO in a 96 well plate. The compounds were added to duplicate wells in 96-well cell plates a using a FX BECKMAN robot (Beckman Coulter) and incubated at 37°C with CO2 atmosphere. After 3 days, relative numbers of viable cells were measured by MTT (Sigma) according to manufacturer's instruction and read on EndVision (Perkin Elmer). EC50 values were calculated using ActivityBase from IDBS. Drugs in combination assays were dosed starting at 4 x EC50 concentrations and continuing with serial dilutions 1:2. PI3K inhibitors and chemotherapeutic agents were added simultaneously.
(§2) An additional exemplary in vitro cell proliferation assay includes the following steps: • 1. An aliquot of 200 µl of cell culture containing optimal density (between 10^4 - 5x10^4 cells) (see Examples for cell lines and tumour type) in medium was deposited in each well of a 96-well flat bottom plates. • 2. Control wells were prepared containing medium without cells • 3. The compound was added to the experimental wells and incubated for 3 days. • 4. […] Formazan salt formed was recorded and reported in graphs as relative growth vs. cells treated only with dmso.

BT474 = assay: Antiproliferation MTT assay, BT474; format: cell-based; settings: Homo sapiens, BT-474; Breast cancer
Method: as §1
(§3) An additional exemplary in vitro cell proliferation assay includes the following steps: • 1. An aliquot of 200 µl of cell culture containing optimal density (between 10^4 - 5x10^4 cells) (see Examples for cell lines and tumour type) in medium was deposited in each well of a 96-well flat bottom plates. • 2. Control wells were prepared containing medium without cells • 3. The compound was added to the experimental wells and incubated for 3 days. • 4. One quarter volume of MTT reagent with respect to the volume of cell culture medium present in each well was added and incubated 24h at 37°C with 5% CO2. • 5. One quarter volume of solubilisation buffer with respect to the volume of cell culture medium present in each well was added and incubated 24h at 37°C with 5% CO2. • 6. Formazan salt formed was recorded and reported in graphs as relative growth vs. cells treated only with dmso.

[1] = tested on: phospho-Akt1 (Ser473) protein; assay: PI3K cellular activity (Elisa assay), AKT phosphorylation in SKMEL cells; format: cell-based; settings: inhibition of phosphorylation of AKT, read-out: AKT_P_SKMEL_ELISA_EC50
HT39 = assay: Antiproliferation MTT assay, HT39; format: cell-based; settings: Colon Cancer
Method: as §1, §3

SKMEL19 = assay: Antiproliferation MTT assay, SKMEL19; format: cell-based; settings: Homo sapiens, SK-MEL19, Melanoma
Method: as §1, §3

NCI H1975 = assay: Antiproliferation MTT assay, NCI H1975; format: cell-based; settings: Homo sapiens, Lung Cancer
Method: as §1, §3

MV4:11 = assay: Antiproliferation assay, MV4:11; format: cell-based; settings: Homo sapiens, AML, read-out: MMP MV4:11 IC50
Method: as §1, §3

NCI H23 = assay: Antiproliferation MTT assay, NCI H23; format: cell-based; settings: Homo sapiens, Lung Cancer
Method: as §1, §3

[2] = tested on: phospho-Akt1 (Ser473) protein; assay: PI3K cellular activity (Elisa assay), AKT phosphorylation in U2OS cells; format: cell-based; settings: Homo sapiens, U20S cells, inhibition of phosphorylation of AKT, 3h treatment, read-out: AKT_P_U20S_ELISA_EC50
Method: Activity is measured as endogenous levels of phospho-Akt1 (Ser473) protein. Osteosarcoma U2OS cells are plated in 96 Poly-D-Lysine coating tissue culture plates (18.000 cells/well). After the treatment with serial dilutions of the compound during 3h, the cells are fixed directly in the wells with 4% paraformaldehyde.
After fixing, individual wells go through the same series of steps used for a conventional immunoblot: including blocking with 5% BSA, incubation with 1/1000 of primary antibody-AKT ([…]) in PBS containing 5% BSA at 4°C overnight (Cell Signalling), washing and incubation with second antibody HRP-anti-mouse IgG for 1 h at RT (Amersham). After the addition of SuperSignal ELISA Femto maximum sensitivity chemiluminescent substrate (Pierce) the results are read using a luminescence plate reader (Victor).

A549 = assay: Antiproliferation MTT assay, A549; format: cell-based; settings: Homo sapiens, A549, Lung Cancer
Method: as §1, §3

HCT 116p53 ++ = assay: Antiproliferation MTT assay, HCT 116; format: cell-based; settings: Homo sapiens, HCT-116, Colon Cancer
Method: as §1, §3

SW620 = assay: Antiproliferation MTT assay, SW620; format: cell-based; settings: Homo sapiens, SW-620; Colon Cancer
Method: as §1, §2

COLO206 = assay: Antiproliferation MTT assay, COLO206; format: cell-based; settings: Colon Cancer
Method: as §1, §3

HDAC = HDAC enzymatic activity (HDAC-Glo I/II Screening System, HeLa cell nuclear extracts); format: biochemical; settings: HeLa cell nuclear extract, 25°C for 30 minutes
Method: HDAC inhibitory activity was evaluated using the HDAC-Glo™ I/II Screening System from Promega (G6430) using manufacturing recommendations. The system emploies HeLa cell nuclear extracts as a source of HDAC activities. The assay uses an acetylated, live-cell-permeant, luminogenic peptide substrate that can be deacetylated by HDAC activities. Substrate deacetylation is measured by a coupled protease reaction that cleaves the peptide from aminoluciferin, which is quantified in a reaction using recombinant Ultra-Glo™ firefly luciferase. Test compounds were serially diluted in dimethylsulphoside (DMSO) and added to HeLa cell nuclear extract in the presence of the acetylated luminogenic peptide substrate and developer reagent. Reactions were incubated at 25°C for 30 minutes and luminescence was measured in the EnVision plate reader (Perkin Elmer). Data were analyzed using GraphPad Prism (v5.03) with a sigmoidal dose-response curve fitting for IC50 calculation.

MDAMB 231 = assay: Antiproliferation MTT assay, MDAMB 231; format: cell-based; settings: Homo sapiens, MDA-MB-231; Breast cancer
Method: as §1, §3

Raji = assay: Antiproliferation MTT assay, Raji; format: cell-based; settings: Homo sapiens, Burkitt Lymphoma
Method: as §1, §3

U2OS = assay: Antiproliferation MTT assay, U2OS; format: cell-based; settings: Homo sapiens, Osteosar coma
Method: as §1, §3

PI3K (p110α/p85α) = molecular target: T1, PI3K (p110α/p85α (Homo sapiens, UniProt P42336)); assay: PI3K activity assay (ADP Hunter Plus); format: biochemical; settings: 50 µM ATP, 30 µM PIP2, 1 hour at 25°C; read-out: PI3Kα IC50
T1 construct: purchased Carna Biosciences #07CBS-0402A
T1 sequence (P42336 whole entry): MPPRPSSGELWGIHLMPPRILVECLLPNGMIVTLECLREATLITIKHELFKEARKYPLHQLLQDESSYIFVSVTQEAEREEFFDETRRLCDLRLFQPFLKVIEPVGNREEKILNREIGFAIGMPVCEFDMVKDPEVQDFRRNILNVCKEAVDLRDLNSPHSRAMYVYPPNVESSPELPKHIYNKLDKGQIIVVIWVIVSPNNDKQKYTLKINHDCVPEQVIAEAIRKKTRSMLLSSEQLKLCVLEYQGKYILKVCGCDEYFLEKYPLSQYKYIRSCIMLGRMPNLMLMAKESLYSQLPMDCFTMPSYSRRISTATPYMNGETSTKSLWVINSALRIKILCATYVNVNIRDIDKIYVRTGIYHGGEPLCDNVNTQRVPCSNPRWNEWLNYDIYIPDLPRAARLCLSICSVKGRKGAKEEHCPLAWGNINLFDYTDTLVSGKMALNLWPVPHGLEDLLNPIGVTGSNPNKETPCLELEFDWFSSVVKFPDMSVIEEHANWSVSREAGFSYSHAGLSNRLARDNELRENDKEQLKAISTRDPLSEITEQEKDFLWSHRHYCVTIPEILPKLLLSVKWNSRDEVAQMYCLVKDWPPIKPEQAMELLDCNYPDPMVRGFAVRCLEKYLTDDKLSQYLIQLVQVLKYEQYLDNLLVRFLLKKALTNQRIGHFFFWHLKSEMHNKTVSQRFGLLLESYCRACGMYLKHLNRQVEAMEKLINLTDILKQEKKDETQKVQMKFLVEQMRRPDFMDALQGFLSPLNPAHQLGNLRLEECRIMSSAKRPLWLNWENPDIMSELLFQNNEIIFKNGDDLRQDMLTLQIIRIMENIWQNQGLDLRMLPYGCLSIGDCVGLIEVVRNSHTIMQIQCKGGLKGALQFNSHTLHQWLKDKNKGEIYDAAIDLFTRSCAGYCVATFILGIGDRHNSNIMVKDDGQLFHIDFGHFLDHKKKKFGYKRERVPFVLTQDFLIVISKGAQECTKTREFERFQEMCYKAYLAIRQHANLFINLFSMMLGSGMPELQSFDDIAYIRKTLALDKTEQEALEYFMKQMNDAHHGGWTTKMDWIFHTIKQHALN
T1 sequence (P27986 whole entry partner): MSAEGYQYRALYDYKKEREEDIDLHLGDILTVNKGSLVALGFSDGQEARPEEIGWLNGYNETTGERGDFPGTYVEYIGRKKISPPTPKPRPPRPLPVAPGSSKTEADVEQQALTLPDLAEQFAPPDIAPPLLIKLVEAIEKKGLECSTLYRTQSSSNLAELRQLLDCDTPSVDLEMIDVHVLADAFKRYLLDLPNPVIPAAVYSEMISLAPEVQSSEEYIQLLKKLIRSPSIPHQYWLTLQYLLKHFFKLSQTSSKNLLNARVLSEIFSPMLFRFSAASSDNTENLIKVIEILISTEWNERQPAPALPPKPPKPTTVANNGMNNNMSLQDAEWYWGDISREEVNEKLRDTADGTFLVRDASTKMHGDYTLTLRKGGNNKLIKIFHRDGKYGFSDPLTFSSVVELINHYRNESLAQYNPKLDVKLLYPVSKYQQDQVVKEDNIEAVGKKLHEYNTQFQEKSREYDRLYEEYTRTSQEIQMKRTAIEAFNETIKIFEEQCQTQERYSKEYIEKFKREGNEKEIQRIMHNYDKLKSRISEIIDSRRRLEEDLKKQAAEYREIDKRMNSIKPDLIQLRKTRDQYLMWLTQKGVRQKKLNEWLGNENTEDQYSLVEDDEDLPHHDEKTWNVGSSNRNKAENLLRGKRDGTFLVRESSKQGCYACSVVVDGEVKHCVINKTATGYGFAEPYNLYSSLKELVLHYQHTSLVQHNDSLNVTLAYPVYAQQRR
Method: The kinase activity was measured by using the commercial ADP Hunter™ Plus assay available from DiscoveRx (#33-016), which is a homogeneous assay to measure the accumulation of ADP, a universal product of kinase activity. […] Reaction was carried out for 1 hour at 25°C. Reagent A and B were sequentially added to the wells and plates were incubated for 30 min at 37 °C. Fluorescence counts were read in a Victor instrument (Perkin Elmer) with the recommended settings (544 and 580 nm as excitation and emission wavelengths, respectively). Values were normalized against the control activity included for each enzyme (i.e., 100 % PI3 kinase activity, without compound). These values were plot against the inhibitor concentration and were fit to a sigmoid dose-response curve by using the Graphad software.

SKMel29 = assay: Antiproliferation MTT assay, SKMel29; format: cell-based; settings: Melanoma
Method: as §1, §3

Miapaca = assay: Antiproliferation MTT assay, Miapaca; format: cell-based; settings: Homo sapiens, MIA PaCa-2; Pancreas
Method: as §1, §3

NCI H460 = assay: Antiproliferation MTT assay, NCI H460; format: cell-based; settings: Homo sapiens, Lung Cancer
Method: as §1, §2

PC3 = assay: Antiproliferation MTT assay, PC3; format: cell-based; settings: Homo sapiens, PC-3; Prostate
Method: as §1, §2

[3] = first of two columns with the same head (c1)
[4] = second of two columns with the same head (c2)
[5] = first of two columns with the same head (c3)

Row | SMILES | IC50 (MCF7) | IC50 (BT474) | EC50 [1] | IC50 (HT39) | IC50 (SKMEL19; [3]) | IC50 (SKMEL19; [4]) | IC50 (NCI H1975) | IC50 (MV4:11) | IC50 (NCI H23) | IC50 (A549; [3]) | IC50 (HCT 116p53 ++) | IC50 (HCT 116p53 ++; [5]) | IC50 (COLO206) | IC50 (HDAC) | IC50 (MDAMB 231) | IC50 (Raji) | IC50 (U2OS) | IC50 (PI3K (p110α/p85α)) | IC50 (SKMel29) | IC50 (Miapaca) | further results
1 | CN(Cc1cn2cc(-c3cnc(N)nc3)nc(N3CCOCC3)c2n1)c1ncc(C(=O)NO)cn1 [Final Compound 3] | 120 nM | 19 nM | 1940 nM | 580 nM | 100 nM | 43 nM | 240 nM | 40 nM | 2040 nM | 1080 nM | 240 nM | 410 nM | 150 nM | 10.6 nM | 180 nM | 51 nM | 250 nM | 7.5 nM | 16 nM | 150 nM | EC50 [2]: 26 nM; IC50 (A549; [4]): 990 nM; IC50 (SW620): 400 nM; IC50 (NCI H460): 1690 nM
2 | Nc1ncc(-c2cn3cc(CNc4ncc(C(=O)NO)cn4)nc3c(N3CCOCC3)n2)cn1 [Final Compound 1] | – | 500 nM | 330 nM | 34600 nM | 3300 nM | 2300 nM | 14400 nM | 1150 nM | 77900 nM | 50800 nM | 7770 nM | 6710 nM | 5940 nM | 21.1 nM | 5730 nM | 2750 nM | 5360 nM | 5.7 nM | 1330 nM | 4320 nM | IC50 (PC3): 5760 nM
3 | Nc1ncc(-c2cn3cc(CN4CCN(c5ncc(C(=O)NO)cn5)CC4)nc3c(N3CCOCC3)n2)cn1 [Final Compound 2] | 540 nM | 94 nM | 70 nM | 1210 nM | 370 nM | 70 nM | 1050 nM | 340 nM | 2150 nM | 3530 nM | 670 nM | 1160 nM | 560 nM | 9 nM | 560 nM | 280 nM | 2110 nM | 3.2 nM | 16 nM | 630 nM | IC50 (PC3): 1170 nM; EC50 [2]: 1360 nM; IC50 (A549; [4]): 1320 nM; IC50 (SW620): 1340 nM; IC50 (NCI H460): 2390 nM
